Test results published in ChEMBL document CHEMBL1201862, “PubChem BioAssay data set” (2004).
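Following 48 hours of exposure in 96-well plates, responses at five concentrations were used to interpolate endpoints linearly. Here, GI50 denotes the concentration required for 50% inhibition of growth.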 The source made the active and inactive calls. Cut-off read from the data, not from the text of the source: active = GI50 up to about 1.1 µM and inactive = higher.

Experiments:
Assay in all cases: DTP human tumour cell line panel, 48 h
HCT-15 = tested on: HCT-15
786-0 = tested on: 786-0
RXF 393 = tested on: RXF 393
T47D = tested on: T47D
HCT-116 = tested on: HCT-116
SNB-19 = tested on: SNB-19
MCF7 = tested on: MCF7
COLO 205 = tested on: COLO 205
NCI-H23 = tested on: NCI-H23
DU-145 = tested on: DU-145
OVCAR-3 = tested on: OVCAR-3
K562 = tested on: K562
NCI/ADR-RES = tested on: NCI/ADR-RES
M14 = tested on: M14
UACC-257 = tested on: UACC-257
CCRF-CEM = tested on: CCRF-CEM
TK-10 = tested on: TK-10
SF-295 = tested on: SF-295
HL-60 = tested on: HL-60
Hs-578T = tested on: Hs-578T

Row | Structure (SMILES) | GI50 (HCT-15) | GI50 (786-0) | GI50 (RXF 393) | GI50 (T47D) | GI50 (HCT-116) | GI50 (SNB-19) | GI50 (MCF7) | GI50 (COLO 205) | GI50 (NCI-H23) | GI50 (DU-145) | GI50 (OVCAR-3) | GI50 (K562) | GI50 (NCI/ADR-RES) | GI50 (M14) | GI50 (UACC-257) | GI50 (CCRF-CEM) | GI50 (TK-10) | GI50 (SF-295) | GI50 (HL-60) | GI50 (Hs-578T)
1 | CC[C@]1(Cc2ccc(OC)c(OC)c2)[C@@H]2C[C@@H](C(=O)OC)ON2O[C@H](OC2CCCC2(c2ccccc2)c2ccccc2)[C@@H]1OC(C)=O (some centres not stated) | > 100 µM | > 100 µM (inactive) | > 100 µM (inactive) | > 100 µM (inactive) | > 100 µM (inactive) | > 100 µM (inactive) | > 100 µM (inactive) | > 100 µM (inactive) | > 100 µM (inactive) | > 100 µM (inactive) | > 100 µM (inactive) | > 100 µM (inactive) | > 100 µM (inactive) | > 100 µM (inactive) | > 100 µM (inactive) | > 100 µM (inactive) | > 100 µM (inactive) | > 100 µM (inactive) | – | –
2 | O=C(O)CCSc1nnc(COc2ccc(Cl)cc2)n1-c1ccccc1 | > 100 µM | > 100 µM (inactive) | > 100 µM (inactive) | > 100 µM (inactive) | > 100 µM (inactive) | > 100 µM (inactive) | > 100 µM (inactive) | > 100 µM (inactive) | > 100 µM (inactive) | > 100 µM (inactive) | > 100 µM (inactive) | > 100 µM (inactive) | > 100 µM (inactive) | > 100 µM (inactive) | > 100 µM (inactive) | 95.3 µM (inactive) | > 100 µM (inactive) | > 100 µM (inactive) | > 100 µM (inactive) | –
3 | O=C1CCCC1CN1CCCC1 (configuration not stated) | 2 µM | 5.22 µM (inactive) | – | 2.75 µM (inactive) | 3.44 µM (inactive) | > 100 µM (inactive) | 2.2 µM (inactive) | 3.78 µM (inactive) | 15.3 µM (inactive) | 30.5 µM (inactive) | 14.2 µM (inactive) | 0.251 µM (active) | 15.7 µM (inactive) | 1.67 µM (inactive) | 15.2 µM (inactive) | 0.207 µM (active) | 12.5 µM (inactive) | > 100 µM (inactive) | 0.367 µM (active) | 22.2 µM (inactive)
4 | OC[C@H](O)[C@@H](OCc1ccccc1)[C@H](NCc1ccccc1)c1cccs1 | > 100 µM | > 100 µM (inactive) | – | > 100 µM (inactive) | 99.5 µM (inactive) | 21.4 µM (inactive) | > 100 µM (inactive) | > 100 µM (inactive) | 55.7 µM (inactive) | > 100 µM (inactive) | > 100 µM (inactive) | > 100 µM (inactive) | > 100 µM (inactive) | > 100 µM (inactive) | > 100 µM (inactive) | > 100 µM (inactive) | > 100 µM (inactive) | > 100 µM (inactive) | > 100 µM (inactive) | –
5 | O=C(O)c1cccc(S(=O)(=O)NN2C(=O)CSC2c2ccccc2Cl)c1 (configuration not stated) | > 100 µM | > 100 µM (inactive) | > 100 µM (inactive) | > 100 µM (inactive) | > 100 µM (inactive) | > 100 µM (inactive) | > 100 µM (inactive) | > 100 µM (inactive) | > 100 µM (inactive) | > 100 µM (inactive) | > 100 µM (inactive) | > 100 µM (inactive) | – | > 100 µM (inactive) | > 100 µM (inactive) | > 100 µM (inactive) | > 100 µM (inactive) | > 100 µM (inactive) | > 100 µM (inactive) | > 100 µM (inactive)
6 | COC1CCC(OC2CC(C3(C)CCC4(CC(O)C(C)C(C(C)/C=C(\C)C(=O)C(C)CC(C)C(=O)O)O4)O3)OC3(OC(C4OC(O)(CO)C(C)CC4C)CC3C)C2C)OC1C (configuration not stated) | 0.0351 µM | < 0.0341 µM (active) | < 0.01 µM (active) | < 0.01 µM (active) | < 0.0279 µM (active) | 0.0434 µM (active) | < 0.0208 µM (active) | < 0.0154 µM (active) | < 0.0345 µM (active) | < 0.0501 µM (active) | < 0.01 µM (active) | < 0.0155 µM (active) | – | 0.122 µM (active) | < 0.0199 µM (active) | < 0.01 µM (active) | 0.646 µM (active) | 0.179 µM (active) | < 0.01 µM (active) | –
7 | CC1=CCC[C@H]2[C@](C)(CC3=CC(=O)C4SCCSC4C3=O)[C@@H](C)CC[C@]12C (some centres not stated) | 23.3 µM | 18.5 µM (inactive) | 18.6 µM (inactive) | > 100 µM (inactive) | 13.8 µM (inactive) | 19 µM (inactive) | 20.5 µM (inactive) | 17.7 µM (inactive) | 13.2 µM (inactive) | 24.5 µM (inactive) | 18.5 µM (inactive) | 19.9 µM (inactive) | 19.1 µM (inactive) | 14.3 µM (inactive) | 19.3 µM (inactive) | 11 µM (inactive) | – | 10.9 µM (inactive) | – | –
8 | C[C@H](C1CC2(C)OC2(C)C(=O)O1)[C@H]1CC[C@H]2[C@@H]3[C@@H]4O[C@@H]4[C@@]4(O)CC=CC(=O)[C@]4(C)[C@H]3CC[C@]12C (some centres not stated) | > 50 µM | > 50 µM (inactive) | 9.71 µM (inactive) | 24.9 µM (inactive) | > 50 µM (inactive) | 29.6 µM (inactive) | > 50 µM (inactive) | > 50 µM (inactive) | > 50 µM (inactive) | 16.9 µM (inactive) | > 50 µM (inactive) | > 50 µM (inactive) | > 50 µM (inactive) | > 50 µM (inactive) | > 50 µM (inactive) | – | > 50 µM (inactive) | > 50 µM (inactive) | > 50 µM (inactive) | –
9 | COc1cc(/C=C/c2ccc(OC)c(O)c2)cc(OC)c1 | 3.94 µM | 15.7 µM (inactive) | 1.25 µM (inactive) | – | 3.4 µM (inactive) | 3.87 µM (inactive) | – | 26.5 µM (inactive) | 3.44 µM (inactive) | – | 2.16 µM (inactive) | 2.43 µM (inactive) | – | 3.08 µM (inactive) | 5.86 µM (inactive) | 3.15 µM (inactive) | 37.3 µM (inactive) | 1.96 µM (inactive) | 1.75 µM (inactive) | –
10 | Clc1ccc2[nH]c(CC3CCCC3)nc2c1 | 6.87 µM | 16.6 µM (inactive) | 14.7 µM (inactive) | 17.9 µM (inactive) | 16.1 µM (inactive) | 23.4 µM (inactive) | 6.61 µM (inactive) | 14.2 µM (inactive) | 15.1 µM (inactive) | 20.9 µM (inactive) | 6 µM (inactive) | 3.14 µM (inactive) | 13.8 µM (inactive) | 18.3 µM (inactive) | 88.1 µM (inactive) | 26.2 µM (inactive) | 28.5 µM (inactive) | 16.1 µM (inactive) | – | –
11 | CC(=O)OC1OC2C(NC(=O)OC(C)(C)C)C1CC2(OCc1ccccc1)OCc1ccccc1 (configuration not stated) | 32.3 µM | 23.3 µM (inactive) | 14.2 µM (inactive) | – | 16.7 µM (inactive) | 45.1 µM (inactive) | – | 21.7 µM (inactive) | 18.8 µM (inactive) | – | 16.5 µM (inactive) | 17 µM (inactive) | – | 20.5 µM (inactive) | 19.1 µM (inactive) | 18.3 µM (inactive) | 17 µM (inactive) | 35.2 µM (inactive) | 12.8 µM (inactive) | –
12 | O=C(NC1C2CC3CC(C2)CC1C3)/C(Cl)=C1/Sc2ccccc2NC1=O (configuration not stated) | > 78.9 µM | > 100 µM (inactive) | > 100 µM (inactive) | – | > 83.6 µM (inactive) | > 100 µM (inactive) | – | > 100 µM (inactive) | > 100 µM (inactive) | – | > 100 µM (inactive) | 29.6 µM (inactive) | – | > 100 µM (inactive) | > 100 µM (inactive) | 29.5 µM (inactive) | > 64.6 µM (inactive) | > 100 µM (inactive) | 62.2 µM (inactive) | –
13 | CCCN1CCC(=O)N(CCC(F)(F)C(F)(F)C(F)(F)C(F)(F)C(F)(F)C(F)(F)F)C1=S | – | > 100 µM (inactive) | 99.5 µM (inactive) | > 100 µM (inactive) | > 100 µM (inactive) | > 100 µM (inactive) | > 100 µM (inactive) | 69.7 µM (inactive) | > 100 µM (inactive) | > 100 µM (inactive) | > 100 µM (inactive) | > 100 µM (inactive) | – | > 100 µM (inactive) | > 100 µM (inactive) | > 100 µM (inactive) | > 100 µM (inactive) | > 100 µM (inactive) | > 100 µM (inactive) | > 100 µM (inactive)
14 | Cc1cc([N+](=O)[O-])ccc1Sc1c2ccccc2nc2cc(Cl)ccc12 | 51.4 µM | 35.2 µM (inactive) | 84.5 µM (inactive) | – | 28.1 µM (inactive) | 41.3 µM (inactive) | – | 38.4 µM (inactive) | 28.8 µM (inactive) | – | 28.3 µM (inactive) | 36.1 µM (inactive) | – | 40.8 µM (inactive) | 73.6 µM (inactive) | 28.1 µM (inactive) | 55.6 µM (inactive) | 45.8 µM (inactive) | 5.78 µM (inactive) | –
15 | O=C(c1ccccc1)C1(Br)S(=O)(=O)OCCOS1(=O)=O | > 100 µM | > 100 µM (inactive) | > 100 µM (inactive) | – | > 100 µM (inactive) | > 100 µM (inactive) | – | > 100 µM (inactive) | > 100 µM (inactive) | – | > 100 µM (inactive) | > 100 µM (inactive) | – | > 100 µM (inactive) | > 100 µM (inactive) | > 100 µM (inactive) | > 100 µM (inactive) | > 100 µM (inactive) | > 100 µM (inactive) | –
16 | Cc1ccc(S(=O)(=O)Nn2c(O)c(C#N)c(-c3ccc(N(C)C)cc3)c(C#N)c2=O)cc1 | > 50 µM | > 50 µM (inactive) | > 50 µM (inactive) | – | > 50 µM (inactive) | > 50 µM (inactive) | > 50 µM (inactive) | > 50 µM (inactive) | – | – | – | > 50 µM (inactive) | > 50 µM (inactive) | – | > 50 µM (inactive) | > 50 µM (inactive) | > 50 µM (inactive) | 0.023 µM (active) | 28.9 µM (inactive) | > 50 µM (inactive)
